Assay in all cases: growth of human tumour cells (NCI), 48 h
Experiment [1] concerns A498 renal.
Experiment [2] has as its system SNB-19 CNS.
Experiment [3] concerns SNB-75 CNS.
The test system of experiment [4] is SW-620 colon.
The test system of experiment [5] is NCI-H23 lung.
Experiment [6] concerns HOP-92 NSCLC.
Experiment [7] relates to M14 melanoma.

Values joined by “and” are separate entries in the source; they are usually repeats but may differ in a detail not shown here. Equal entries are not always repeated.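 Protocol summary: plate cells (96-well), add compound at 5 concentrations, incubate 48 h, interpolate endpoints linearly. The concentration for 50% growth inhibition is given as GI50. TGI: concentration producing complete growth inhibition.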 Some results are limits rather than exact numbers.

`O=C(Cc1ccccc1)NS(=O)(=O)c1ccccc1`: the TGI in experiment [1], in experiment [2], in experiment [3], in experiment [4], in experiment [5] and in experiment [6] was greater than 100 µM in each case. The TGI in experiment [7] was greater than 100 µM.

Take `CCOC(=O)NC1CC2CCC1(OC)C=C2C` (stereo not drawn): the TGI in experiment [1], in experiment [2], in experiment [3], in experiment [4], in experiment [5] and in experiment [6] was greater than 100 µM in each case. Also, the TGI in experiment [7] is greater than 100 µM.

For the compound `COC(=O)C1=C(C)N(NC(N)=O)C(C)(O)C12CCOC2=O` (stereo not drawn), the TGI in experiment [1], in experiment [2], in experiment [4], in experiment [5], in experiment [6] and in experiment [7] was greater than 100 µM each time.

As for `O=NN(CCCl)C(=O)N[C@H]1CCCC[C@@H]1Cl`, the TGI in experiment [1], in experiment [2], in experiment [3], in experiment [4], in experiment [5] and in experiment [6] was greater than 100 µM in each case. The same compound yielded a TGI in experiment [7] greater than 100 µM.

`COC1CC(OC)C(O)C(CO)O1` (stereo not drawn): the TGI in experiment [3], in experiment [4], in experiment [5] and in experiment [7] was greater than 100 µM throughout.

As for `O=C(O)[C@@H](NS(=O)(=O)c1ccc([N+](=O)[O-])cc1)c1ccccc1`, the TGI in experiment [1], in experiment [2], in experiment [3], in experiment [4], in experiment [5] and in experiment [6] was greater than 100 µM throughout. This compound also displayed a TGI in experiment [7] greater than 100 µM.

As to `Cc1ccc(N2C(=O)C(Cl)=C(Cl)C2=O)cc1`, the TGI in experiment [1] was greater than 100 µM; in experiment [2] it was greater than 100 µM; in experiment [3] it was 48.5 µM; in experiment [4] it was 34.8 µM; in experiment [5] it was 41.3 µM; in experiment [6] it was 32.4 µM. Moreover, in experiment [7], the TGI worked out at 36.7 µM.

For `Cc1c(CC/C(=N\Nc2ccc([N+](=O)[O-])cc2[N+](=O)[O-])c2ccccc2)c2ccccc2n1C`, the TGI in experiment [1], in experiment [2], in experiment [3], in experiment [4], in experiment [5] and in experiment [6] was greater than 100 µM in each case. In experiment [7], the TGI was greater than 100 µM.

Regarding `CCOC(=O)c1cc(OC(=O)CC)c2c(OC)ccc(OC)c2c1`, the TGI was greater than 100 µM in experiment [2], 99 µM in experiment [3], greater than 100 µM in experiment [4] and greater than 100 µM in experiment [5].

On to `C=C[C@H]1C=Cc2c(OC)cccc2[C@@H]1COP1(=S)NC(C)C(c2ccccc2)O1` (stereo partly drawn), for which the TGI in experiment [2], in experiment [3], in experiment [4], in experiment [5] and in experiment [7] was greater than 100 µM in each case.

With `C[CH2][Sn]([CH2]C)([O]C(=O)c1ccc(F)cc1)[O][Sn]([CH2]C)([CH2]C)[O]C(=O)c1ccc(F)cc1`, the GI50 was 16.4 µM in experiment [1]; greater than 100 µM in experiment [2]; 58.5 µM in experiment [3]; 22.8 µM in experiment [4]; 41 µM in experiment [5]; 19.1 µM in experiment [6]. Also, the GI50 in experiment [7] was greater than 100 µM. For the same compound, the TGI in experiment [1] was 30 µM; in experiment [2] it was greater than 100 µM; in experiment [3], greater than 100 µM; in experiment [4] it was 45.5 µM; in experiment [5] it was greater than 100 µM; in experiment [6], 59 µM. Also, the TGI in experiment [7] was greater than 100 µM.

Regarding `COc1ccccc1NC(=O)C(CC(C(=O)Nc1ccccc1OC)/C(C)=N/NC(=O)c1ccccc1O)/C(C)=N/NC(=O)c1ccccc1O` (stereo not drawn), the TGI in experiment [1], in experiment [2], in experiment [3], in experiment [4], in experiment [5] and in experiment [6] was greater than 100 µM each time. Further, the TGI in experiment [7] was greater than 100 µM.

Consider `CCCN1C(=O)CNC(=O)c2[nH]cnc21`, for which the TGI in experiment [1], in experiment [2], in experiment [3], in experiment [4], in experiment [5] and in experiment [6] was greater than 100 µM each time. The same compound came in with a TGI in experiment [7] greater than 100 µM.

With `Nc1nc(=Nc2ccccc2)ss1`, the TGI in experiment [1], in experiment [2], in experiment [3], in experiment [4], in experiment [5] and in experiment [6] was greater than 100 µM each time. In experiment [7], the TGI is greater than 100 µM.

On to `CCOC(=O)C(C(=O)OCC)=c1sc(=C(C(=O)OCC)C(=O)OCC)s1`, for which the TGI in experiment [3], in experiment [4], in experiment [5], in experiment [6] and in experiment [7] was greater than 100 µM each time.

`COC(=O)Cc1cc(=O)n2c([nH]c3ccccc32)c1C#N`: the TGI in experiment [1], in experiment [2], in experiment [3], in experiment [4], in experiment [5] and in experiment [7] was greater than 100 µM each time.

For `CCCCCCCCCCCCC(CCCCCCCCCCCC)OP(=O)(O)O`, the TGI in experiment [1] is 52.8 µM; in experiment [2], greater than 100 µM; in experiment [3], greater than 100 µM; in experiment [4] it was greater than 100 µM; in experiment [5] it was greater than 100 µM; in experiment [6], greater than 100 µM. The compound further came in with a TGI in experiment [7] greater than 100 µM.

On to `Cc1ccc(NC(=O)CC2C(=O)Nc3ccccc3S2=O)c(C)c1` (stereo not drawn), for which the TGI in experiment [1] is 61.3 µM; in experiment [2], 30.8 µM; in experiment [3] it was 30 µM; in experiment [4] it was 67.4 µM; in experiment [5], 32.8 µM; in experiment [6], 29.8 µM. In experiment [7], this compound yielded a TGI of 46.7 µM.

For the compound `CC1=Nc2ccccc2C12C(c1ccccc1)C(c1ccccc1)C(=O)N1c3ccccc3CC12` (stereo not drawn), the TGI in experiment [1], in experiment [2], in experiment [3], in experiment [4], in experiment [5] and in experiment [6] was greater than 100 µM throughout. The compound also had a TGI in experiment [7] greater than 100 µM.

With `CC(C)c1cccc(C(C)C)c1NC(=O)CCC(=O)NN`, the TGI in experiment [1] is greater than 100 µM; in experiment [2], greater than 100 µM; in experiment [3], greater than 100 µM; in experiment [4] it was 42.9 µM; in experiment [5] it was greater than 100 µM; in experiment [6] it was greater than 100 µM. Besides, in experiment [7], the TGI was greater than 100 µM.

Consider `COC(=O)[C@@]12C=CC(=O)[C@H]3C[C@@H](C(C(C)C)C1)[C@]32OC` (stereo partly drawn), for which the TGI in experiment [1], in experiment [2], in experiment [3], in experiment [4], in experiment [5] and in experiment [6] was greater than 100 µM each time. The compound also showed a TGI in experiment [7] greater than 100 µM.

On to `COc1ccc(C2C3=C(COC3=O)Oc3cc4c(cc32)OCO4)cc1` (stereo not drawn), for which the TGI in experiment [2] is greater than 100 µM; in experiment [3], 39.7 µM; in experiment [4], greater than 100 µM; in experiment [5] it was greater than 100 µM; in experiment [6], 68.1 µM; in experiment [7], greater than 100 µM.

Take `Cn1nc2ccccc2cc1=O`: the TGI in experiment [1], in experiment [2], in experiment [3], in experiment [4], in experiment [5] and in experiment [6] was greater than 100 µM in each case. This compound came in with a TGI in experiment [7] greater than 100 µM.

Take `COC(C)(C)[C@H](O)C(O)CC(C)[C@@H]1CCC23CC12CCC1[C@@]2(C)CCC(OC(C)=O)C(C)(C)C2CC(OC2OC(COC(C)=O)C(O)C(O)C2O)[C@]13C` (stereo partly drawn): the GI50 was 17 µM in experiment [1]; 4.32 µM in experiment [3]; 4.67 µM in experiment [4]; 11.3 µM in experiment [5]; 4.37 µM in experiment [6]; 3.58 µM in experiment [7]. Besides, the TGI in experiment [1] is 18.7 µM and 34.7 µM; in experiment [2] it was 14.5 µM and 20 µM; in experiment [3], 11.3 µM and 17.1 µM; in experiment [4], 13.7 µM and 15.3 µM; in experiment [5] it was 16 µM and 25.2 µM; in experiment [6] it was 11.6 µM and 16.9 µM. Further, the TGI in experiment [7] was 9.78 µM and 14.2 µM.

For `c1ccc2c(CNCCCCCCCCCCCCNCc3cccc4ccccc34)cccc2c1`, the TGI in experiment [1] came out at 19.7 µM; in experiment [3], 3.21 µM; in experiment [4], 3.2 µM; in experiment [5] it was 2.89 µM; in experiment [6] it was 3.66 µM; in experiment [7] it was 3.29 µM.

For the compound `c1ccc2c(c1)[nH]c1c2ncc2[nH]c3ccccc3c21`, the TGI was determined as 9.07 µM in experiment [1]; 10.7 µM in experiment [2]; 12.1 µM in experiment [3]; 10.3 µM in experiment [4]; 33.5 µM in experiment [5]; 8.71 µM in experiment [6]. Further, the TGI in experiment [7] was determined as 7.99 µM.

As for `O=C(C=Nc1ccccc1C(=O)[O-])c1cccs1.O=C(C=Nc1ccccc1C(=O)[O-])c1cccs1.[Zn+2]`, the TGI was greater than 100 µM in experiment [1]; greater than 100 µM in experiment [2]; 35.3 µM in experiment [3]; greater than 100 µM in experiment [4]; greater than 100 µM in experiment [5]; 64 µM in experiment [6]. Also, the TGI in experiment [7] is greater than 100 µM.

Source of the values: PubChem BioAssay (NCI).
